Results from patent publication US20220185822A1, “SELECTIVE LIGANDS OF HUMAN CONSTITUTIVE ANDROSTANE RECEPTOR” (USTAV ORGANICKE CHEMIE A BIOCHEMIE AV CR, V.V.I., priority 2019, published 2022).

Key:
[1] = target: T1, human CAR ligand-binding domain (LBD) (Homo sapiens, UniProt Q14994); assay: TR-FRET CAR Coactivator Binding Assay (LanthaScreen); assay type: biochemical
T1 construct: purchased ThermoFisher Scientific PV4836
From the text: The assay uses two fluorophores: a terbium-labeled anti-GST antibody interacting with glutathione-S-transferase tagged human CAR ligand-binding domain (LBD) and a fluorescein-labeled PGC1α coactivator peptide. […] Values above 1 represent the agonistic activity on CAR with subsequent CAR-PGC1α interaction.

human CAR LBD = target: T2, human CAR LBD (Homo sapiens, UniProt Q14994); assay: CAR LBD assembly assay (two hybrid luciferase reporter in HepG2 cells); assay type: cell-based
T2 construct: C (151-349 aa) and N (103-150 aa) terminal parts of human CAR LBD; N (103-150 aa) terminal parts of human CAR LBD; expressed in transfected cells; host or cells: HepG2
T2 sequence (Q14994 151-348 isoform Q14994-2 limits assumed): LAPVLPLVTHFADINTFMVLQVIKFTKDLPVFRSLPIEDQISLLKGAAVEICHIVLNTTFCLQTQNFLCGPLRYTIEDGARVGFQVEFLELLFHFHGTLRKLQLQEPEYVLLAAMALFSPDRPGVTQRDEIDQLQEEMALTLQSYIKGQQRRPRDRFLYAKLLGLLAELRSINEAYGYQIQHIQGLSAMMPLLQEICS
T2 sequence (Q14994 103-150 isoform Q14994-2 limits assumed): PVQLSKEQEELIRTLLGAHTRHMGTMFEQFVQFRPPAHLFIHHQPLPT
Description: A ligand promotes connection of the two parts of CAR LBD resulting in luciferase transactivation. Luminescence activity in the cell lysate was measured using a commercially available luciferase detection system (Catalog Number E1960, Dual Luciferase Reporter Assay Kit, Promega, Madison, Wis., USA). The data are presented as means and S.D. and expressed as the fold-change of firefly luciferase activity normalized to Renilla luciferase activity in each sample and relative to the vehicle (DMSO 0.1%)-treated controls, which were set at 1.

[2] = test system: differentiated HepaRG cells; assay: Viability/cytotoxicity in differentiated HepaRG cells; assay type: cell-based, human; conditions: 48 h treatment
[3] = test system: primary human hepatocytes; assay: Viability/cytotoxicity in primary human hepatocytes; assay type: cell-based; conditions: 48 h treatment
farnesoid X receptor = target: T3, farnesoid X receptor (Homo sapiens, UniProt Q96RI1); assay: Luciferase reporter assay with GAL4 construct with LBD, farnesoid X receptor; assay type: cell-based; conditions: 10 μM/L
T3 construct: luciferase reporter assays with a GAL4 constructs with LBD of tested nuclear receptors; expressed in transfected cells
T3 sequence (Q96RI1 262-486 limits assumed): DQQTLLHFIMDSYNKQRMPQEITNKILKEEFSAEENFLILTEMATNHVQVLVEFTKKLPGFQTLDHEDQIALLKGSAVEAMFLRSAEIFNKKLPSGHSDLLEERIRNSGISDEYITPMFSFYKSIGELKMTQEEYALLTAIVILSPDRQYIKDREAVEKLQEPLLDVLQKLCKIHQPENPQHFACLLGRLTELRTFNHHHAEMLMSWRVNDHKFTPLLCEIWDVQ

PPARδ = target: T4, PPARδ (Homo sapiens, UniProt Q03181); assay: Luciferase reporter assay with GAL4 construct with LBD, PPARδ; assay type: cell-based; conditions: 10 μM/L
T4 construct: luciferase reporter assays with a GAL4 constructs with LBD of tested nuclear receptors; expressed in transfected cells
T4 sequence (Q03181 211-439 limits assumed): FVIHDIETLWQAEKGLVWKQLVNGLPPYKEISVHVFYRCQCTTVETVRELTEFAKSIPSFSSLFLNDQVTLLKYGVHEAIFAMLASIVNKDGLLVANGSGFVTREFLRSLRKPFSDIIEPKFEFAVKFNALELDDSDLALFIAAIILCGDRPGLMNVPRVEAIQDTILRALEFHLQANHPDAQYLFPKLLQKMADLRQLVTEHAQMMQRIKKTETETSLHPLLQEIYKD

vitamin D receptor = target: T5, vitamin D receptor (Homo sapiens, UniProt P11473); assay: Luciferase reporter assay with GAL4 construct with LBD, vitamin D receptor; assay type: cell-based; conditions: 10 μM/L
T5 construct: luciferase reporter assays with a GAL4 constructs with LBD of tested nuclear receptors; expressed in transfected cells
T5 sequence (P11473 127-423 limits assumed): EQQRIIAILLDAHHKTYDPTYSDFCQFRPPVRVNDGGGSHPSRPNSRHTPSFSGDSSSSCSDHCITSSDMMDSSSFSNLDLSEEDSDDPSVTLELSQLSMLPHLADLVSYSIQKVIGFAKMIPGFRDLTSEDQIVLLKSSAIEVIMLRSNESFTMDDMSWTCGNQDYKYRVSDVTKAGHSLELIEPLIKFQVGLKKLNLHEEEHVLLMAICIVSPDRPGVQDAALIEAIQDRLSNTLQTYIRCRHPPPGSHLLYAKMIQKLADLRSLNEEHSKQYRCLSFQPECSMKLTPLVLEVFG

live X receptor β = target: T6, live X receptor β (Homo sapiens, UniProt P55055); assay: Luciferase reporter assay with GAL4 construct with LBD, live X receptor β; assay type: cell-based; conditions: 10 μM/L
T6 construct: luciferase reporter assays with a GAL4 constructs with LBD of tested nuclear receptors; expressed in transfected cells
T6 sequence (P55055 222-460 limits assumed): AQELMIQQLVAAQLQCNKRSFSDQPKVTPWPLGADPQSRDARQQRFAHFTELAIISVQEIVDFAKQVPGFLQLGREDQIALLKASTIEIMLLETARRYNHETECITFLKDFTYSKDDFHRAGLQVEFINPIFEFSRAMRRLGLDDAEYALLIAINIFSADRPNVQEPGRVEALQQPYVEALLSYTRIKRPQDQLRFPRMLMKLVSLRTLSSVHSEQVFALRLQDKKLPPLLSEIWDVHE

[4] = Metabolic stability in human liver S9 fraction; assay type: in vitro ADME; conditions: read-out: T1/2 in human liver S9 fraction
[5] = test system: CYP2B6 mRNA (CAR target gene); assay: RT-qPCR of CYP2B6 mRNA in primary human hepatocytes; assay type: cell-based; conditions: 48 hours, 1 and 5 μM/L (FIG. 4)
From the text: Delta-delta method and GAPDH/Gapdh or B2M/B2m housekeeping genes were used for relative quantification. Data are expressed as fold up-/down-regulation compare to vehicle-treated samples/mice.

in vivo = conditions: C57BL/6, mouse, 10 mg/kg
[6] = test system: CYP3A4, CYP1A2, CYP2C9, CYP2C19, CYP2C8, CYP2D6, CYP2B6 (panel); assay: in vitro; conditions: both, human, pooled human liver microsomes
human PXR = target: T7, human PXR (Homo sapiens, UniProt O75469); assay: PXR-responsive luciferase reporter gene assay in HepG2 cells
T7 sequence (O75469 1-434): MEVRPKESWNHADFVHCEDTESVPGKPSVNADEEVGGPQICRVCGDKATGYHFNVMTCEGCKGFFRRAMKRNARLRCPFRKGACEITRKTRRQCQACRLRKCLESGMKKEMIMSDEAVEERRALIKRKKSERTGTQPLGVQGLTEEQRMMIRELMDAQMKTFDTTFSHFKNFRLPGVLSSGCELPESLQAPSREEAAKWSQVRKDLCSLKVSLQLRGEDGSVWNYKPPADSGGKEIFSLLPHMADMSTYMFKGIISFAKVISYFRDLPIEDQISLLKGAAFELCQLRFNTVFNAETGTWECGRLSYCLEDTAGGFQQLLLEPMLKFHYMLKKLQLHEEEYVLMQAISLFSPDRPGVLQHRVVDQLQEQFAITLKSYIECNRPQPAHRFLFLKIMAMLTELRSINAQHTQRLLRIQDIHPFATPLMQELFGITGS

T1 sequence (Q14994 103-348 isoform Q14994-2 limits assumed, other chains not shown): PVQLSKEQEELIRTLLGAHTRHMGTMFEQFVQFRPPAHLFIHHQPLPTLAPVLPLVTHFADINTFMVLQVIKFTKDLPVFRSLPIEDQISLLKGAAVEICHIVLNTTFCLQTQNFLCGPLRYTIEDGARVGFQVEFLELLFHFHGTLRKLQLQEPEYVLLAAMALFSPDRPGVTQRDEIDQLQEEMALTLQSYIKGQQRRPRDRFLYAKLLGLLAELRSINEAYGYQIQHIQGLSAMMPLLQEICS

Compound: NC(=O)c1cc(Cn2cc(-c3c(-c4ccc(Cl)cc4)nc4cc(F)ccn34)nn2)ccc1Cl [Example 93, 2-Chloro-5-((4-(2-(4-chlorophenyl)-7-fluoroimidazo[1,2-a]pyridin-3-yl)-1H-1,2,3-triazol-1-yl)methyl)benzamide]
- EC50 [1]: 71 nM
- EC50 (human CAR LBD): 380 nM
- viability/cytotoxicity in differentiated HepaRG cells [2]: no effect on viability/cytotoxicity
- viability/cytotoxicity in primary human hepatocytes [3]: no effect on viability/cytotoxicity
- activation of farnesoid X receptor (farnesoid X receptor): do not activate
- activation of PPARδ (PPARδ): do not activate
- activation of vitamin D receptor (vitamin D receptor): do not activate
- activation of live X receptor β (live X receptor β): do not activate
- half-life at 2 μM [4]: > 2.83 h
- CYP2B6 mRNA in primary human hepatocytes [5]: up-regulates
- half-life (in vivo; ip): 3.62 h
- half-life (in vivo; oral): 2.83 h
- IC50 [6]: > 10000 nM
- PXR % of RIF activity (10 μM) at 10 μM (human PXR; tested at 10 μM, HepG2, 24 h): No activation
- selectivity and specificity for human CAR in comparison with CITCO (FIG. 2) (human PXR; versus PXR): highly selective and specific for human CAR
